Measured values published in patent US9950026B2, “Methods for reducing oxidative damage” (Cornell Research Foundation, Inc., priority 2004, dated 2018).
Where a SMILES comes first, the peptide text is derived from it. [ ]: non-standard residue; d: D form. Dmt = Cc1cc(O)cc(C)c1C[C@H](N)C(=O)O

Columns and labels:
[1] = tested on: Caco-2; test: Cellular uptake of [3H][Dmt1]DALDA; type: in vitro ADME, human; settings: estimated
Description: The cellular uptake of [^3H][Dmt^1]DALDA was studied using a human intestinal epithelial cell line (Caco-2), and confirmed with SH-SY5Y (human neuroblastoma cell), HEK293 (human embryonic kidney cell) and CRFK cells (kidney epithelial cell). Monolayers of cells were grown on 12-well plates (5×10^5 cells/well) coated with collagen for 3 days. On day 4, cells were washed twice with pre-warmed HBSS, and then incubated with 0.2 ml of HBSS containing either 250 nM [^3H][Dmt^1]DALDA at 37° C. […] 4° C. for various times up to 1 h.
In a separate experiment, cells were incubated with a range of [Dmt^1]DALDA concentrations (1 μM-3 mM) for 1 h at 37° C. At the end of the incubation period, cells were washed 4 times with HBSS, and 0.2 ml of 0.1N NaOH with 1% SDS was added to each well. The cell contents were then transferred to scintillation vials and radioactivity counted. To distinguish between internalized radioactivity from surface-associated radioactivity, an acid-wash step was included. Prior to cell lysis, cells were incubated with 0.2 ml of 0.2 M acetic acid/0.05 M NaCl for 5 min on ice.

[2] = tested on: Caco-2 cells; test: Mitochondrial potential (TMRM) after tBHP; type: cell-based, human; settings: tBHP 1 mM, SS-02 0.1 μM, 4 h
Description: Caco-2 cells were treated with tBHP (1 mM) in the absence or presence of SS-02 (0.1 μM) for 4 h, and then incubated with TMRM and examined under LSCM. In control cells, the mitochondria are clearly visualized as fine streaks throughout the cytoplasm.

[3] = tested on: N2A cells; test: Pan-caspase activity (FLICA kit) after tBHP; type: cell-based, murine
Description: FIG. 21A-B. SS-31 prevented caspase activation in N2A cells treated with tBHP. […]
[…] All treatments were carried out in quadriplicates. […] Cells were gently lifted from the plates with a cell detachment solution (Accutase, Innovative Cell Technologies, Inc., San Diego, Calif.) and washed twice in PBS. Caspase activity was assayed using the FLICA kit (Immunochemistry Technologies LLC, Bloomington, Minn.) According to the manufacturer's recommendation, cells were resuspended (approx. 5×10^6 cells/ml) in PBS and labeled with pan-caspase inhibitor FAM-VAD-FMK for 1 h at 37° C. under 5% CO2 and protected from the light. Cells were then rinsed to remove the unbound reagent and fixed. Fluorescence intensity in the cells was measured by a […] (Beckman-Coulter XL, Beckman Coulter, Inc., Fullerton, Calif.) using the standard emission filters for green (FL1). For each run, 10,000 individual events were collected and stored in list-mode files for off-line analysis.

[4] = tested on: SH-SY5Y; test: tBHP-induced LDH release; type: cell-based, human; settings: 100 μM tBHP
Description: FIG. 18A-18B. SS-31 reduced tBHP-induced LDH release in SH-SY5Y (A) and N2A (B) cells. Cells were treated with 100 μM tBHP alone, or with SS-31, for 24 h. *P<0.05, **P<0.01, ***P<0.001, compared to tBHP alone.
The loss of cell viability induced by 100 μM tBHP was accompanied by a significant increase in LDH release in SH-SY5Y (FIG. 18A) and N2A cell (FIG. 18B).

[5] = tested on: N2A cells; test: Caspase-9 activity (FLICA) after tBHP; type: cell-based, murine; settings: 50 μM tBHP, 12 h, 1 nM SS-31
Description: FIG. 21A-B. SS-31 prevented caspase activation in N2A cells treated with tBHP. […] (B)(a-c) N2A cells were treated with 50 μM tBHP for 12 h and stained with caspase-9 FLICA™ kit containing red fluorescent inhibitor SR-LEHD-FMK and Hoechst 33342.

[6] = tested on: G93A transgenic familial ALS mice; test: Disease onset, survival and tolerability in ALS mice; type: in vivo; settings: 5 mg/kg SS-31 i.p.
Description: FIG. 25A-25B. (A) Cumulative probability of disease on set and survival with SS-31 5 mg/kg/day treatment (n=14) […] as compared to vehicle treatment (n=14). […] (B) Mean survival (days) of G93A mice treated with vehicle or SS-31 5 mg/kg/day. (Data are mean±SD, p<0.05, Student's t-test).
Treatment with 5 mg-kg SS-31 i.p. started at 30 days of age of G93A transgenic familial amyotrophic lateral sclerosis (ALS) mice (high copy number, B6SJL-Tg(SOD1-G93A)1Gur/J) led to a significant delay of disease onset as defined by the appearance of tremor and hind limb clasping as well as deterioration in the rotarod performance, the average age of onset in the control group was 88+7 days, in the SS-31 treated group 95+6 days (p<0.05, Logrank (Mantel-Cox)). […] There was a gender effect on survival which has been observed in previous studies with this model as well in G93A mice in this background with males having a shorter life span than females (average of 5 days).

[7] = tested on: C57BL/6 mice subjected to 30 min MCAO; test: Redox status (cysteine, ascorbate, GSH) after transient MCAO; type: in vivo; settings: 2 mg/kg i.p. upon reperfusion, 6 h
Description: FIG. 31A-31C. Effect of SS-31 peptide on ischemia-induced changes in cysteine (A) ascorbate (B), and GSH (C) levels, C57BL/6 mice were subjected to 30 min MCAO and treated with vehicle, SS-31 (2 mg/kg body weight) or SS-20 (2 mg/kg body eight) peptide immediately after reperfusion. Mice were sacrificed at 6 h postischemia. Values are expressed as percent increase (cysteine) or percent depletion (ascorbate and GSH) in ipsilateral side versus contralateral side. Error bars indicate SEM (n=4-6 animals per group).
To test the efficacy of SS-3 1 on redox status, cysteine, ascorbate and GSH levels were determined 6 h after 30 min transient middle cerebral artery occlusion (MCAO) in mice treated intraperitoneally (i.p.) with saline (vehicle), SS-31 (2 mg/kg) or SS-20 (2 mg/kg) upon reperfusion. Values in FIG. 31 are expressed as percent increase (cysteine) and percent depletion (ascorbate and GSH) in the ipsilateral side compared to the contralateral side. Absolute values were originally expressed as nmoles/mg protein as shown in FIG. 30 and converted to percent difference. The percent ipsilateral cysteine increase was similar among vehicle-, SS-31-, and SS-20-treated groups (FIG. 31A).

| Compound | intracellular concentration relative to extracellular concentration [1] | mitochondrial depolarization caused by tBHP [2] | increase in pan-caspase activity ([3]; 100 μM tBHP, 24 h) | caspase activity ([3]; t-BHP 12 h) | LDH release ([4]; 0.1 and 1 nM of SS-31) | LDH release ([4]; 24 h) | cells showing caspase-9 staining [5] | average age of onset [6] | survival [6] | tolerability / side effects [6] | increase in survival ([6]; vs control) [%] | ischemia-induced GSH depletion in the cortex [7] | percent ipsilateral cysteine increase [7] | percent ipsilateral depletion of ascorbate [7] |
| --- | --- | --- | --- | --- | --- | --- | --- | --- | --- | --- | --- | --- | --- | --- |
| 2′,6′-Dmt-Arg-Phe-Lys-NH2 [SS-02] | approximately 50 times | protected against mitochondrial depolarization |  |  |  |  |  |  |  |  |  |  |  |  |
| Cc1cc(O)cc(C)c1C[C@H](NC(=O)[C@H](N)CCCNC(=N)N)C(=O)N[C@@H](CCCCN)C(=O)N[C@@H](Cc1ccccc1)C(N)=O [SS-31, D-Arg-2′6′-Dmt-Lys-Phe-NH2] (H-[dR][Dmt]KF-NH2; N-terminus assumed) |  |  | dose-dependently prevented | dose-dependently inhibited | reduced significantly | dose-dependent decrease | reduced the number of cells showing caspase-9 staining | 95+6 days | 142+12 day | well tolerated and no side effects were observed | 9 | significantly attenuated | similar | marginally but not significantly affected |
